Assay results from article PMC4861708 (Frontiers in Cell and Developmental Biology, 2016).
Values after ≈ are worked out from the molar mass of the structure shown. Where a SMILES comes first, the peptide text is derived from it. [ ]: non-standard residue; d: D form. The star is where a group is joined. Orn(α-tetramethylguanidino) = CN(C)C(=N[C@@H](CCCN)C(=O)*)N(C)C; Orn = NCCC[C@H](N)C(=O)O

Columns and labels:
[1] = system: P. aeruginosa DSM 1117 (ATCC 27853); assay type: cell-based, Pseudomonas aeruginosa; details: DSM 1117, 24 h
Procedure: MICs of P. aeruginosa strains DSM 1117 (ATCC 27853), DSM 3227 (ATCC 19429), and DSM 9644 were determined in a microdilution broth assay using 50 or 100% MHB (11.5 and 23 g/L MHB, respectively) whereas MICs of E. coli DSM 1103 (ATCC 25922) and K. pneumoniae DSM 681 (ATCC 10031) were determined in TSB (30 g/L TSB). Peptides (1 g/L in water) were serially two-fold diluted in a 96-well microtiter plate (PS, sterile, flat bottom) in 50 μL of the corresponding medium to final concentrations of 512–4 μg/mL. Bacteria were grown in nutrient broth overnight and diluted to a cell concentration of 1.5 × 10^7 cells/mL in the corresponding medium. Cell densities were determined by using the McFarland standard as reference. An aliquot (50 μL) of the cell culture was added to each well and incubated (37°C, 24 h). The OD595 was determined in a SpectraMax 340PC (Molecular Devices, Sunnyvale, USA). Additionally, MIC values were also determined for high bacteria densities (5 × 10^8 cells/mL) corresponding to the conditions used for TEM, as described above.

[2] = system: K. pneumoniae DSM 681 (ATCC 10031); assay type: cell-based, Klebsiella pneumoniae; details: DSM 681, 24 h
Procedure, shortened: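 Broth microdilution MIC: P. aeruginosa strains in 50 or 100% MHB, K. pneumoniae in TSB; peptides 512–4 μg/mL final. Inoculum from 1.5 × 10^7 cells/mL suspension, also high density 5 × 10^8 cells/mL; 37°C, 24 h, growth read at OD595.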

[3] = target: T1, P. aeruginosa elastase (Pseudomonas aeruginosa, UniProt P14756); assay: Elastase assay (proteolytic stability); assay type: in vitro ADME; details: after 30 min and all later time points, elastase 12 units/mL, pH 8.3, 37°C
T1 construct: purchased Merck (Darmstadt, Germany)

[4] = system: P. aeruginosa DSM 1117; assay: Transmission electron microscopy, morphological changes; assay type: cell-based, Pseudomonas aeruginosa; details: 1 h
Procedure: Peptide-bacteria mixtures were fixed (2% glutaraldehyde, 5 mmol/L CaCl2, 10 mmol/L MgCl2 in 0.1 mol/L sodium cacodylate buffer, pH 7.4) overnight at 4°C. […] Samples were rinsed with distilled water (5 × 10 min), incubated with aqueous uranylacetate (0.5% w/v) for 1 h at 4°C, washed with distilled water (3 × 10 min), and embedded in Epon. The hardened blocks were sectioned (50 nm) on a UCT ultramicrotome (Leica, Vienna, Austria), stained with uranyl acetate and lead citrate on an AC20 system (Leica), and visualized at a Tecnai 12 electron microscope (FEI, Eindhoven, The Netherlands) at 80 kV. Morphological effects were quantified on average for 25 cells per condition.

T1 sequence (P14756 198-498): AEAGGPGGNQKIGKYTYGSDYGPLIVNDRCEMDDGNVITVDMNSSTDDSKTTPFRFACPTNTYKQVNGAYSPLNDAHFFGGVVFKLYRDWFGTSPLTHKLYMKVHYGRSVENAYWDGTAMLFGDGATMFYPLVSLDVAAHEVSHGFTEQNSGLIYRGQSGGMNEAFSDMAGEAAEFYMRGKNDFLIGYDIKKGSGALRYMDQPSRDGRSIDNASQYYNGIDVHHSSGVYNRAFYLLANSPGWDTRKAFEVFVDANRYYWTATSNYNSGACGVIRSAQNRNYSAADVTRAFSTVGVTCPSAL

## CC[C@H](C)[C@H](NC(=O)[C@H](CCCN)N=C(N(C)C)N(C)C)C(=O)N[C@@H](CCCN)C(=O)N[C@H](C(=O)N[C@@H](CCCN)C(=O)N[C@@H](CCCNC(=N)N)C(=O)N1CCC[C@H]1C(=O)N[C@H](C(=O)N[C@@H](Cc1ccc(O)cc1)C(=O)N[C@@H](CCCN)C(=O)N1CCC[C@H]1C(=O)N[C@@H](CCCNC(=N)N)C(=O)N1CCC[C@H]1C(=O)N[C@@H](CCCNC(=N)N)C(=O)N1CCC[C@H]1C(=O)N1CCC[C@H]1C(=O)N[C@@H](Cc1c[nH]cn1)C(=O)N1CCC[C@H]1C(=O)N[C@@H](CCCNC(=N)N)C(=O)N[C@@H](CC(C)C)C(=O)O)C(C)C)[C@@H](C)CC [Api795, gu-O(IO)2RPVYOPRPRPPHPRL-OH] ({Orn(α-tetramethylguanidino)}-I[Orn]I[Orn]RPVY[Orn]PRPRPPHPRL-OH)
[1]
  MIC P. aeruginosa DSM 1117, high inoculum: 16 µg/mL (≈ 6.35 µM)
[2]
  MIC K. pneumoniae DSM 681: 8 µg/mL (≈ 3.18 µM)
[3]
  Peptide detected with elastase: 92 ± 4%
[4]; 4 µg/mL
  Cells spongy: 0%
  DNA/ribosomes relocalization: +++, extremely relocalized: 0%
  DNA/ribosomes relocalization: ++, relocalized: 23%
  DNA/ribosomes relocalization: +, starting: 37%
  DNA/ribosomes relocalization: -, no: 40%
  Membrane: b, broken: 0%
  Membrane: i, intact: 100%
  Membrane: r, ruptured: 0%
  Ribosome clustering: +++, extremely clustered: 0%
  Ribosome clustering: ++, clustered: 0%
  Ribosome clustering: +, starting: 70%
  Ribosome clustering: -, no: 30%
  Vesicle release: 67%
  dissociated Fragments: ++, long and thin: 3%
  dissociated Fragments: +, small and thin: 3%
  dissociated Fragments: -, no: 93%
  dissociated Fragments: LV, large vesicles: 0%
[4]; 16 µg/mL
  Cells spongy: 0%
  DNA/ribosomes relocalization: +++, extremely relocalized: 0%
  DNA/ribosomes relocalization: ++, relocalized: 10%
  DNA/ribosomes relocalization: +, starting: 40%
  DNA/ribosomes relocalization: -, no: 50%
  Membrane: b, broken: 0%
  Membrane: i, intact: 100%
  Membrane: r, ruptured: 0%
  Ribosome clustering: +++, extremely clustered: 0%
  Ribosome clustering: ++, clustered: 0%
  Ribosome clustering: +, starting: 30%
  Ribosome clustering: -, no: 70%
  dissociated Fragments: ++, long and thin: 0%
  dissociated Fragments: +, small and thin: 0%
  dissociated Fragments: -, no: 100%
  dissociated Fragments: LV, large vesicles: 0%
[4]; 64 µg/mL
  Cells spongy: 0%
  DNA/ribosomes relocalization: ++, relocalized: 67%
  DNA/ribosomes relocalization: +, starting: 10%
  DNA/ribosomes relocalization: -, no: 10%
  Membrane: b, broken: 10%
  Membrane: i, intact: 90%
  Membrane: r, ruptured: 3%
  Ribosome clustering: +++, extremely clustered: 7%
  Ribosome clustering: ++, clustered: 7%
  Ribosome clustering: +, starting: 77%
  Ribosome clustering: -, no: 10%
  Vesicle release: 50%
  dissociated Fragments: ++, long and thin: 3%
  dissociated Fragments: +, small and thin: 0%
  dissociated Fragments: -, no: 97%
  dissociated Fragments: LV, large vesicles: 0%
[4]; 512 µg/mL
  Cells spongy: 10%
  DNA/ribosomes relocalization: +++, extremely relocalized: 100%
  DNA/ribosomes relocalization: ++, relocalized: 0%
